Here are results for 18 compounds from BindingDB's records for doi:10.1002/cbic.200400084 (Laboratorium FÜR Organische Chemie, 2004).

As usually defined, the IC50 is the point on the concentration scale where inhibition reaches its midpoint. Low values mean inhibition by little substance, high ones a need for much substance.

SMILES strings stand for the structures.

In this experiment the target is T1, Catechol O-methyltransferase (Rattus norvegicus, UniProt P22734).
T1 sequence (P22734 whole entry): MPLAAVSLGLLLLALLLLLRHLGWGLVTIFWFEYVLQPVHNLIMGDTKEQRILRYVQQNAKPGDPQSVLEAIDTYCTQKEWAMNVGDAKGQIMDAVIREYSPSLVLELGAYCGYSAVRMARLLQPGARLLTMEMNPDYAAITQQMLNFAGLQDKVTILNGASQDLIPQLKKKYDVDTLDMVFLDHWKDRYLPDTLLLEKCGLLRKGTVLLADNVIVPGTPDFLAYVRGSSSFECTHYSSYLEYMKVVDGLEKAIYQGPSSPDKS
Briefly: Radiochemical Assay. Particulars: 37 °C. The procedure: The binding affinity of the inhibitors towards Catechol O-methyltransferase in the presence of Mg2+ ions were determined by using a radiochemical assay.
Compound `Nc1ncnc2c1ncn2[C@@H]1O[C@H](/C=C/CNC(=O)c2cc(C(F)(F)F)cc(O)c2O)[C@@H](O)[C@H]1O` [Bi-substrate Inhibitor, 1j] showed an IC50 of 0.035 µM.
To `Nc1ncnc2c1ncn2[C@@H]1O[C@H](/C=C/CNC(=O)c2cc(-c3ccncc3)cc(O)c2O)[C@@H](O)[C@H]1O` [Bi-substrate Inhibitor, 1d] belongs 0.023 µM; to `Cc1ccc(C(=O)c2cc(O)c(O)c(C(=O)NC/C=C/[C@H]3O[C@@H](n4cnc5c(N)ncnc54)[C@H](O)[C@@H]3O)c2)cc1` [Bi-substrate Inhibitor, 1i], 0.034 µM.
To `Nc1ncnc2c1ncn2[C@@H]1O[C@H](/C=C/CNC(=O)c2cccc(O)c2O)C(O)[C@H]1O` (stereo partly drawn) [Bi-substrate Inhibitor, 1t] belongs 2.6 µM.
To `Nc1ncnc2c1ncn2[C@@H]1O[C@H](/C=C/CNC(=O)c2cc(Cl)cc(O)c2O)[C@@H](O)[C@H]1O` [Bi-substrate Inhibitor, 1m] belongs 0.044 µM; to `CN(C)C(=O)/C=C/c1cc(O)c(O)c(C(=O)NC/C=C/[C@H]2O[C@@H](n3cnc4c(N)ncnc43)[C@H](O)[C@@H]2O)c1` [Bi-substrate Inhibitor, 1o], 0.097 µM; to `Nc1ncnc2c1ncn2[C@@H]1O[C@H](/C=C/CNC(=O)c2cc(C(=O)C(F)(F)F)cc(O)c2O)[C@@H](O)[C@H]1O` [Bi-substrate Inhibitor, 1k], 0.039 µM.
As for `Nc1ncnc2c1ncn2[C@@H]1O[C@H](/C=C/CNC(=O)c2cc([N+](=O)[O-])cc(O)c2O)[C@@H](O)[C@H]1O` [Bi-substrate Inhibitor, 1a], half-maximal inhibition (IC50) required 0.009 µM.
The same measure for `Cc1ccc(-c2cc(O)c(O)c(C(=O)NC/C=C/[C@H]3O[C@@H](n4cnc5c(N)ncnc54)[C@H](O)[C@@H]3O)c2)cc1` [Bi-substrate Inhibitor, 1c]: 0.023 µM; for `Cc1ccc(S(=O)(=O)c2cc(O)c(O)c(C(=O)NC/C=C/[C@H]3O[C@@H](n4cnc5c(N)ncnc54)[C@H](O)C3O)c2)cc1` (stereo partly drawn) [Bi-substrate Inhibitor, 1p]: 0.213 µM.
To `Nc1ncnc2c1ncn2[C@@H]1O[C@H](/C=C/CNC(=O)c2cc(-c3ccc(F)cc3)cc(O)c2O)[C@@H](O)[C@H]1O` [Bi-substrate Inhibitor, 1b] belongs 0.021 µM; to `Nc1ncnc2c1ncn2[C@@H]1O[C@H](/C=C/CNC(=O)c2cc(-c3nccs3)cc(O)c2O)[C@@H](O)[C@H]1O` [Bi-substrate Inhibitor, 1e], 0.027 µM; to `N#Cc1cc(O)c(O)c(C(=O)NC/C=C/[C@H]2O[C@@H](n3cnc4c(N)ncnc43)[C@H](O)[C@@H]2O)c1` [Bi-substrate Inhibitor, 1h], 0.029 µM.
The same measure for `Nc1ncnc2c1ncn2[C@@H]1O[C@H](/C=C/CNC(=O)c2cc(C(=O)C3CCCCC3)cc(O)c2O)[C@@H](O)[C@H]1O` [Bi-substrate Inhibitor, 1n]: 0.083 µM; for `Nc1ncnc2c1ncn2[C@@H]1O[C@H](/C=C/CNC(=O)c2cc(Br)cc(O)c2O)[C@@H](O)[C@H]1O` [Bi-substrate Inhibitor, 1f]: 0.028 µM.
Compound `Nc1ncnc2c1ncn2[C@@H]1O[C@H](/C=C/CNC(=O)c2cc(C(=O)c3ccncc3)cc(O)c2O)[C@@H](O)[C@H]1O` [Bi-substrate Inhibitor, 1l] returned a 50% inhibitory concentration (IC50) of 0.042 µM.
On to `Cc1ccc(Cc2cc(O)c(O)c(C(=O)NC/C=C/[C@H]3O[C@@H](n4cnc5c(N)ncnc54)[C@H](O)C3O)c2)cc1` (stereo partly drawn) [Bi-substrate Inhibitor, 1q], for which the midpoint of inhibition, the IC50, lay at 0.608 µM.
Regarding `CN(C)C(=O)c1cc(O)c(O)c(C(=O)NC/C=C/[C@H]2O[C@@H](n3cnc4c(N)ncnc43)[C@H](O)C2O)c1` (stereo partly drawn) [Bi-substrate Inhibitor, 1s], the IC50 is 2 µM. Compared with the last compound, the IC50 is about 3.3-fold higher.
